# According to ChEMBL document CHEMBL5620362 (Eur J Med Chem, 2023):
# The source made the active and inactive calls. The rule behind the calls is not given here.
# Legend:
# [1] = system: NCI-H23; experiment: Induction of apoptosis in human NCI-H23 cells assessed as viable cells at 0.1 uM incubated for 48 hrs by Annexin V-FITC/PI staining based flow cytometry (reference value: 92.16 %); format: functional; conditions: read-out: Activity
# [2] = system: HPAF-II; experiment: Downregulation of AKT phosphorylation level in human HPAF-II cells harboring siROR-gamma at 0.1 uM by Western blot analysis; format: functional, cell-based
# [3] = system: HEK-293T; experiment: Cytotoxicity against HEK293T cells incubated for 72 hrs; format: toxicity, cell-based; conditions: human
# [4] = system: HPAF-II; experiment: Induction of apoptosis in human HPAF-II cells assessed as late apoptotic cells at 1 uM incubated for 48 hrs by Annexin V-FITC/PI staining based flow cytometry (reference value: 1.28 %); format: functional
# [5] = system: MIA PaCa-2; experiment: Cytotoxicity against human MIA PaCa-2 cells harboring siROR-gamma assessed as decrease in cell viability at 0.1 uM incubated for 72 hrs by SRB assay; format: functional, cell-based
# [6] = system: HPAF-II; experiment: Antitumor activity against human HPAF-II cells xenografted in nude Balb/cA mouse assessed as tumor growth inhibition at 90 mg/kg, po qd measured for 12 days relative to control; format: functional; parameters: scale not given: the % may be the effect or the level left; conditions: time 12 day
# [7] = system: NCI-H23; experiment: Induction of apoptosis in human NCI-H23 cells assessed as viable cells at 0.01 uM incubated for 48 hrs by Annexin V-FITC/PI staining based flow cytometry (reference value: 92.16 %); format: functional; conditions: read-out: Activity
# [8] = system: HPAF-II; experiment: Induction of apoptosis in human HPAF-II cells assessed as late apoptotic cells at 0.01 uM incubated for 48 hrs by Annexin V-FITC/PI staining based flow cytometry (reference value: 1.28 %); format: functional
# [9] = system: NCI-H23; experiment: Induction of apoptosis in human NCI-H23 cells assessed as late apoptotic cells at 10 uM incubated for 48 hrs by Annexin V-FITC/PI staining based flow cytometry (reference value: 2.89 %); format: functional
# [10] = system: HPAF-II; experiment: Induction of apoptosis in human HPAF-II cells assessed as viable cells at 1 uM incubated for 48 hrs by Annexin V-FITC/PI staining based flow cytometry (reference value: 89.73 %); format: functional; conditions: read-out: Activity
# [11] = system: NCI-H23; experiment: Induction of apoptosis in human NCI-H23 cells assessed as early apoptotic cells at 1 uM incubated for 48 hrs by Annexin V-FITC/PI staining based flow cytometry (reference value: 4.17 %); format: functional
# [12] = system: BXPC-3; experiment: Anticancer activity against human BXPC-3 cells incubated for 72 hrs; format: functional, cell-based
# [13] = system: NCI-H23; experiment: Induction of apoptosis in human NCI-H23 cells assessed as late apoptotic cells at 0.01 uM incubated for 48 hrs by Annexin V-FITC/PI staining based flow cytometry (reference value: 2.89 %); format: functional
# [14] = Toxicity in nude Balb/cA mouse xenografted with human HPAF-II cells assessed as body weight loss at 90 to 180 mg/kg, po qd measured for 12 days; format: organism-based; conditions: in vivo, 288 h, dose 90-180 mg/kg, time 12 day
# [15] = system: HPAF-II; experiment: Cytotoxicity against human HPAF-II cells harboring siROR-gamma assessed as decrease in cell viability at 0.1 uM incubated for 72 hrs by SRB assay; format: functional, cell-based
compound,measurement,setting,value
C=C(C)[C@@H]1CC[C@]2(C(=O)NCCCN(C)C)CC[C@]3(C)[C@H](CC[C@@H]4[C@@]5(C)CC[C@H](O)C(C)(C)[C@@H]5CC[C@]43C)[C@@H]12,viability at 0.1 µM,[1],79.5%
same,Activity,[2],Active
same,Activity,[3],Non-Toxic
same,Activity,[4],20.27%
same,Activity,[5],inactive
same,Activity,[6],21%
same,viability at 0.01 µM,[7],86.3%
same,Activity,[8],4.48%
same,Activity,[9],28.83%
same,viability at 1 µM,[10],38.2%
same,Activity,[11],67.63%
same,Activity,[12],Active
same,Activity,[13],6.78%
same,Activity,[14],Non-Toxic
same,Activity,[15],inactive
